Measured values from patent US20110144206A1, “USE OF A COX-2 INHIBITOR FOR THE TREATMENT OF A COX-2 DEPENDENT DISORDER IN A PATIENT NOT CARRYING HLA ALLELES ASSOCIATED WITH HEPATOTOXICITY” (priority 2008, published 2011).

Assays:
[1] = Liver enzyme (ALT/AST) elevation rates in TARGET study; format: in vivo, human
Experimental: Affected patients and matched controls are identified from a large 52-week international, multicenter, stratified, randomized, double-blind, double-dummy, parallel group clinical study. Most patients are administered one 400 mg dose of lumiracoxib each day. Patients are identified as affected cases based upon clinical measurements of elevated liver enzymes greater than or equal to 3 times ULN following administration of lumiracoxib. Patients are identified as control cases based upon clinical measurements of elevated liver enzymes less than 3 times ULN following administration of lumiracoxib, and control patients are matched to affected cases based upon clinical trial, country (where possible), sex, race and age (within 2 years, where possible). A total of 137 cases and 577 matched controls are used for analysis.
Kaplan-Meier incidence estimates are calculated for the DQA1*0102 carriers and non-carriers for >3xULN (FIG. 4) and >5xULN (FIG. 5) ALT/AST elevations.

[2] = cited from earlier work
[3] = TARGET, crude rate, whole treatment group
[4] = TARGET, crude rate, whole treatment group (Hy's law cases)
[5] = TARGET, patients with DNA and excluding DQA1*0102 patients, N ~3538 estimated

COc1ccc2cc([C@H](C)C(=O)O)ccc2c1 [Naproxen]
ALT/AST >3x ULN [1, 3]: 21 (0.5) n (%)
ALT/AST >5x ULN [1, 3]: 6 (0.1) n (%)
ALT/AST >8x ULN [1, 3]: 3 (0.1) n (%)
ALT/AST >3x ULN + bilirubin ≧2xULN [1, 4]: 2 (0.04) n (%)
Hy's law cases ([1]; TARGET, per treatment arm): 2 cases

Cc1ccc(Nc2c(F)cccc2Cl)c(CC(=O)O)c1 [Lumiracoxib, 2-[(2-chloro-6-fluorophenyl)amino]-5-methyl-benzeneacetic acid]
Kaplan-Meier incidence estimates of >3xULN and >5xULN ALT/AST elevations ([1]; DQA1*0102 carriers): dramatic increase in the incidence after week 13
Kaplan-Meier incidence estimates of >3xULN and >5xULN ALT/AST elevations ([1]; DQA1*0102 non-carriers): do not show a sharp increase after week 13
Hy's law cases ([1]; TARGET, DQA1*0102-negative patients in the lumiracoxib arm): no cases
ALT/AST >3x ULN [1, 3]: 236 (2.6) n (%)
ALT/AST >5x ULN [1, 3]: 113 (1.3) n (%)
ALT/AST >8x ULN [1, 3]: 56 (0.62) n (%)
ALT/AST >3x ULN + bilirubin ≧2xULN [1, 4]: 9 (0.10) n (%)
ULN ALT/AST rates compared to the lumiracoxib arm ([1]; TARGET, lumiracoxib DQA1*0102-negative patients): reduced considerably and are comparable to the other NSAIDs
ALT/AST >3x ULN [1, 5]: 36 (1.0) n (%)
ALT/AST >3x ULN + bilirubin ≧2xULN [1, 5]: 0 (0) n (%)
ALT/AST >5x ULN [1, 5]: 10 (0.3) n (%)
ALT/AST >8x ULN [1, 5]: 3 (0.1) n (%)
Hy's law cases ([1]; TARGET, per treatment arm): Nine
retention in inflamed tissues ([2]; inflamed tissues): up to 24 hours
time to maximum plasma concentrations after dosing ([2]; oral): two
elimination half-life from plasma ([2]; plasma): four

CC(C)Cc1ccc(C(C)C(=O)O)cc1 (centres unmarked) [Ibuprofen]
ALT/AST >3x ULN [1, 3]: 35 (0.8) n (%)
ALT/AST >5x ULN [1, 3]: 13 (0.3) n (%)
ALT/AST >8x ULN [1, 3]: 4 (0.1) n (%)
ALT/AST >3x ULN + bilirubin ≧2xULN [1, 4]: 2 (0.05) n (%)
Hy's law cases ([1]; TARGET, per treatment arm): 2 cases
